Test results: ChEMBL document CHEMBL1201862, “PubChem BioAssay data set” (2004)
Activity calls are given as the source filed them.

Legend:
[1] = target: Paired box protein Pax-8 (Homo sapiens, UniProt Q06710); experiment: PAX8 transcriptional activity inhibition in RMG-I – RMG-I cells, luciferase, cherry-pick, dose response (AID 687027); assay type: functional, cell-based;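 also: luciferase reporter driven by Pax8 target thyroperoxidase promoter measured by SteadyGlo luminescence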
[2] = target: T1, Protein skinhead-1 (Caenorhabditis elegans, UniProt P34707); assay type: functional
T1 sequence (P34707 whole entry): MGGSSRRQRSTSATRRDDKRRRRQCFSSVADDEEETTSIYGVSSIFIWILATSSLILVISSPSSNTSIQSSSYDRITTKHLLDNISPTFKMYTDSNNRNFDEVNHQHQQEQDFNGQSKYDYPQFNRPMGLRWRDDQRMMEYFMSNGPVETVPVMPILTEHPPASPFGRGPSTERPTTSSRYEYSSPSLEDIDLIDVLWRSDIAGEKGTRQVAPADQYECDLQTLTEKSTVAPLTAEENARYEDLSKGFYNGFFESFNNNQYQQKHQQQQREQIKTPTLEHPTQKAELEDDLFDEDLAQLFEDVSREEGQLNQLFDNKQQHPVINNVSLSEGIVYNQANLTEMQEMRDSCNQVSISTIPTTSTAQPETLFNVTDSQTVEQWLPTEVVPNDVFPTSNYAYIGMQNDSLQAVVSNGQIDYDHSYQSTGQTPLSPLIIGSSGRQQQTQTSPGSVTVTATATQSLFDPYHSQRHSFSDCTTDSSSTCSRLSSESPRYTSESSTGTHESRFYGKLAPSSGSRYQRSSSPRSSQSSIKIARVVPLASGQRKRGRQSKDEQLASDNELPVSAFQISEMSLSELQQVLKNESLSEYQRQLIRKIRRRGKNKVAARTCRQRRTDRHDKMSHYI

[3] = target: T2, Polyadenylate-binding protein 1 (Homo sapiens, UniProt P11940); experiment: MLLE binding blockers, Cy5 peptide tracer – biochemical, fluorescence polarization, Cy5-PAM2 peptide, secondary, miRNA deadenylation inhibitor project, dose response (AID 602260); assay type: functional; settings: read-out: IC50_Mean
T2 sequence (P11940 whole entry, the tested form may be a part): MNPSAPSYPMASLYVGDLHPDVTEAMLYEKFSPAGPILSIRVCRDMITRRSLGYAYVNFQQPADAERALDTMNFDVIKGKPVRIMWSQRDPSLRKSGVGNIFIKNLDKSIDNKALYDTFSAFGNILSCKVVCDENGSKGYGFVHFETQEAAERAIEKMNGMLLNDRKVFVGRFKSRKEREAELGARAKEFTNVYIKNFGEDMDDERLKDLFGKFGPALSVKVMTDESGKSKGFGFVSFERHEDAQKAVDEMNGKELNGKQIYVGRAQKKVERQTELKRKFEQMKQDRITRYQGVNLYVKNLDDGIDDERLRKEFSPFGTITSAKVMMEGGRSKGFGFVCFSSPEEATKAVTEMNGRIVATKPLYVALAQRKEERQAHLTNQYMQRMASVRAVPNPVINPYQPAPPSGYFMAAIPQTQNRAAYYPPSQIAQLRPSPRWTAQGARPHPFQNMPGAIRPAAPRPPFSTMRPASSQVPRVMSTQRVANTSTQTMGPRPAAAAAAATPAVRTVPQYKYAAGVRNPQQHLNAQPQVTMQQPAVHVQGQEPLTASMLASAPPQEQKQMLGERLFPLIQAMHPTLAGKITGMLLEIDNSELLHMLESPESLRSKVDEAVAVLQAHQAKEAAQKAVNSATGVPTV

[4] = target: T2, Polyadenylate-binding protein 1; experiment: MLLE domain peptide-binding blockers, IC50 – biochemical, fluorescence polarization, FITC-PAM2 peptide, dose response (AID 602259); assay type: functional; settings: read-out: IC50_Mean
[5] = tested on: INS1; experiment: INS-1E survival protection against cytokine death – cell-based, luminescence, retest, dose response (AID 449756); assay type: functional; settings: Rattus norvegicus;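 also: cell death triggered by IL-1 beta plus TNF-alpha plus IFN-gamma mixture; protective hits raise ATP signal compared with cytokine alone wells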
[6] = target: T3, RNA-binding protein pos-1 (Caenorhabditis elegans, UniProt G5EF15); experiment: disruptors of C. elegans POS-1 RNA interaction – biochemical, fluorescence polarization, dose response (AID 1964);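 also: purified POS-1 fused to maltose binding protein made in E. coli; potency of compounds blocking POS-1 binding to fluorescent RNA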
T3 sequence (G5EF15 whole entry): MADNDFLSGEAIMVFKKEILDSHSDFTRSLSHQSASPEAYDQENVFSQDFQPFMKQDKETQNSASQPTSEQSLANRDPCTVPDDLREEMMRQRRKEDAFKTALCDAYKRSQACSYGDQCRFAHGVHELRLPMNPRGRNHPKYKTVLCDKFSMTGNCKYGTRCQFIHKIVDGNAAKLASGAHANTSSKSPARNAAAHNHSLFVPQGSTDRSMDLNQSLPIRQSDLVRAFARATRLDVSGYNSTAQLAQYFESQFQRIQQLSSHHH

[7] = target: T4, Zinc finger protein mex-5 (Caenorhabditis elegans, UniProt Q9XUB2); experiment: potency of MEX-5 RNA-binding blockers – biochemical, C. elegans, fluorescence polarization, dose response (AID 1960)
T4 sequence (Q9XUB2 whole entry): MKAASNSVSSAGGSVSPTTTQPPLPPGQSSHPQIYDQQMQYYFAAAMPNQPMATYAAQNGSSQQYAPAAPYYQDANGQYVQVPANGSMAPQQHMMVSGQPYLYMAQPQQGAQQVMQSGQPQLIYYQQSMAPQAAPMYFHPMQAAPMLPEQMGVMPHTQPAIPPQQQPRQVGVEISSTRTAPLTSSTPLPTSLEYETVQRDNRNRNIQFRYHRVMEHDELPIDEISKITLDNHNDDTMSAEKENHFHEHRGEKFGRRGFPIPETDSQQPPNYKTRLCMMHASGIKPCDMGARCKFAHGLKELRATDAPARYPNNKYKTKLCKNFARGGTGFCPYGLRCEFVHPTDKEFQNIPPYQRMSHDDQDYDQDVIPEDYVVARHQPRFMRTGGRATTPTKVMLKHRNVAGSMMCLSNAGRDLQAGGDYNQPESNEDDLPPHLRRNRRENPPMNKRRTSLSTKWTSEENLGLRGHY

[8] = target: T5, Heat shock factor protein 1 (Mus musculus, UniProt P38532); experiment: enhancement of HSF1-driven luciferase signal – cell-based, NIH3T3, luminescence, dose retest, confirmation (AID 435004); assay type: functional;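 also: stress induced by proteasome inhibitor MG132 added 30 min after compound; luciferase reporter driven by HSF1 response element in NIH3T3 cells; actives raise luminescence as potentiators of the MG132 stress response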
T5 sequence (P38532 whole entry): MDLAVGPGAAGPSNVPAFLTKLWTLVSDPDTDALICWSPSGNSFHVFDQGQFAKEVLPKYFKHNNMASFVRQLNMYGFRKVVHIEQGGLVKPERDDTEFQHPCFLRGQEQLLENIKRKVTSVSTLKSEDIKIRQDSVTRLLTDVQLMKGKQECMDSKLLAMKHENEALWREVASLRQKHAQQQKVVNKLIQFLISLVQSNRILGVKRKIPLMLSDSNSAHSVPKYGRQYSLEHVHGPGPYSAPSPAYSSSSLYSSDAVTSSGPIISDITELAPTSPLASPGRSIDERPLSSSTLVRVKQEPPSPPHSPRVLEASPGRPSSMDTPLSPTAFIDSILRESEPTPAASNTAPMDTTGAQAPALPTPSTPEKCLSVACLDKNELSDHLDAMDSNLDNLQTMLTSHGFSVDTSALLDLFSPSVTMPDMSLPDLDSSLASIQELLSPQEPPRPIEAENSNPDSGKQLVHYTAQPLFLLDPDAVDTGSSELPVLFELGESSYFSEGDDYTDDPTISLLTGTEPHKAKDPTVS

[9] = target: T5, Heat shock factor protein 1; experiment: decrease of HSF1-responsive luciferase luminescence – cell-based, NIH3T3, dose retest, confirmation (AID 2382); assay type: functional;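 also: NIH3T3 fibroblasts with HSF1-driven luciferase reporter stressed by proteasome inhibitor MG132; luminescence from HSF1-driven luciferase expression after 8 hours of MG132 stress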
[10] = NIH3T3 cell viability loss – ATP luminescence, mouse fibroblasts, counter-screen, dose response (AID 2010); assay type: functional, cell-based;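 also: cells exposed to compound for about 90 hours before reading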
[11] = Trypanosoma cruzi growth suppression in host cells – NIH3T3 host cells, beta-gal luminescence, confirmation (AID 2044); assay type: functional, cell-based;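 also: intracellular parasites grown in NIH/3T3 mouse fibroblasts as host cells; luminescent beta-galactosidase reporter signal from transgenic T. cruzi replicating inside host cells; inhibitors lower the luminescence signal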
[12] = target: T6, Ubiquitin-conjugating enzyme E2 N (Homo sapiens, UniProt P61088); assay type: functional;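 also: Dose-response confirmation in a TR-FRET assay detecting UBC13-driven polyubiquitin chain formation, inhibition measured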
T6 sequence (P61088 whole entry): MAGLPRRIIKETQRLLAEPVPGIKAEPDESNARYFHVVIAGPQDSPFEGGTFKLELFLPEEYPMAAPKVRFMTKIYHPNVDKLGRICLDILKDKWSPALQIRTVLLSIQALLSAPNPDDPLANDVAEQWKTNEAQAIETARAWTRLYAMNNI

[13] = Luminescence Cell-Based Dose Retest to Confirm Inhibitors of Cancer Stem Cells. [Related pubchem assays (depositor defined):AID2717, AID2721]; assay type: functional; settings: Homo sapiens
[14] = tested on: H9c2; experiment: cells; assay type: functional, cell-based; settings: Rattus norvegicus, H9c2, Myocardium;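 also: confirmatory concentration-response retest of ultra-high-throughput screening hits for modulation of myocardial damage; cell death induced by hydrogen peroxide oxidative stress; compound pretreatment for 60 min then peroxide exposure for 2 h; potency is for protecting the cells against peroxide damage rather than for killing them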
[15] = target: Cytochrome P450 2C19 (Homo sapiens, UniProt P33261); experiment: Cytochrome panel assay with activity outcomes. Panel member name: p450-cyp2c19 Compounds with AC50 equal or less than 10 uM are considered active; assay type: functional; settings: read-out: AC50
Chain of Cytochrome P450 2C19 (P33261 whole entry): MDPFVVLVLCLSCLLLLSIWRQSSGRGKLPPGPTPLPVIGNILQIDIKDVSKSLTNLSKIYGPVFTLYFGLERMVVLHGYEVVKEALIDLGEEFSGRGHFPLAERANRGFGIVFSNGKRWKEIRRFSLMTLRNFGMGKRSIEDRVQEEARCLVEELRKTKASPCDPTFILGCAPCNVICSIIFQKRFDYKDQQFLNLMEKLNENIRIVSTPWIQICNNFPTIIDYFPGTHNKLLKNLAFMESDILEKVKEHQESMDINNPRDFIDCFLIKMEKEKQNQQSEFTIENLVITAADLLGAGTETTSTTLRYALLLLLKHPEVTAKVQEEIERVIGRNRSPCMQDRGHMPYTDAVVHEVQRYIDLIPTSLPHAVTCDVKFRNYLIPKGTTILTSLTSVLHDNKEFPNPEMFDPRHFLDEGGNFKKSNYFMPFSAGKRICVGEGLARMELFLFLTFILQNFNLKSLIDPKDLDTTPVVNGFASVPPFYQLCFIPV

[16] = target: Cytochrome P450 2C9 (Homo sapiens, UniProt P11712)
Chain of Cytochrome P450 2C9 (P11712 whole entry): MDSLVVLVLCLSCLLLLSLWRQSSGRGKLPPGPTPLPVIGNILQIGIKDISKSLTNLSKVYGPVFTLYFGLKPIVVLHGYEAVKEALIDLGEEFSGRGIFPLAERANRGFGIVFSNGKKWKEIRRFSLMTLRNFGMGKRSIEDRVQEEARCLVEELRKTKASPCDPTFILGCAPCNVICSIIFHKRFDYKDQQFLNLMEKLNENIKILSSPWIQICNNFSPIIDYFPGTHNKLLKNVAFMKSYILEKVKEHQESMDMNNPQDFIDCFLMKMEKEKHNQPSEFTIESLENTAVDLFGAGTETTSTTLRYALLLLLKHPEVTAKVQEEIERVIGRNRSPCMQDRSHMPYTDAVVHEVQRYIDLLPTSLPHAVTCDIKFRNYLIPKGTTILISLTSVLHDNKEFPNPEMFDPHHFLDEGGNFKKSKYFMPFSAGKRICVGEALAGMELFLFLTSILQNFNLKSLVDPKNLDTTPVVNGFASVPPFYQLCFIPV

Chain of Paired box protein Pax-8 (Q06710 whole entry): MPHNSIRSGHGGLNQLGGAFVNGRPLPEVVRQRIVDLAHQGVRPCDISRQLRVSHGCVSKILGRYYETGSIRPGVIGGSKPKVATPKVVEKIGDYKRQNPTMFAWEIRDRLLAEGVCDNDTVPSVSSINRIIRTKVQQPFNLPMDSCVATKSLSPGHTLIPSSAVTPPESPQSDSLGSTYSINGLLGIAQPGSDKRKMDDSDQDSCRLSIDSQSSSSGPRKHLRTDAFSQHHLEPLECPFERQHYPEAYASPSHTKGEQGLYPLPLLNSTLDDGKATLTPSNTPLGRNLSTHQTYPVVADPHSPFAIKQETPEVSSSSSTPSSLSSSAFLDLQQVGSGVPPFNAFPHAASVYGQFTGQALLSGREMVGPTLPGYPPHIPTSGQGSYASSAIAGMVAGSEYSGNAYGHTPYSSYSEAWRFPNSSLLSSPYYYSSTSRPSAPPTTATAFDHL

Cc1ccccc1/N=C1\N=C(N)c2ccccc21
AC50 [1]: 17.3 µM (active)

O=C(Nc1nc(SCc2ccc(F)cc2)ns1)c1ccco1
IC50 [2]: 70.5 µM (inactive)

CCOc1ccc(N2C(=O)CC(Sc3ccccc3C(=O)O)C2=O)c([N+](=O)[O-])c1 (stereo unspecified)
IC50 [3]: > 66 µM (inactive) | IC50 [4]: > 66 µM (inactive)

COc1ccccc1NS(=O)(=O)c1ccc(O)c(NC(S)=NCC2CCCO2)c1 (stereo unspecified)
IC50 [3]: > 66 µM (inactive) | IC50 [4]: > 66 µM (inactive)

CC(C)(C)n1nc2c3c(ccc2c1O)C(=O)c1ccccc1C3=O
AC50 [5]: 2.98 µM (active)

Cc1nnc(N2C(=O)C(O)=C(C(=O)c3ccco3)C2c2cccc3ccccc23)s1 (stereo unspecified)
EC50 [6]: > 300 µM (not active) | EC50 [7]: > 300 µM (not active)

CCOC(=O)Nc1nc(-c2ccc(F)cc2F)cs1
IC50 [2]: 64.9 µM (inactive)

Cc1cc(C)c(O)c(NC(=S)NC(=O)Cc2ccccc2)c1
IC50 [3]: > 66 µM (inactive) | IC50 [4]: > 66 µM (inactive)

C=CCSc1nnc(N2C(=O)C(O)=C(C(=O)c3ccco3)C2c2ccc(F)cc2)s1 (stereo unspecified)
EC50 [8]: > 260 µM (inactive) | EC50 [6]: 114 µM (active) | EC50 [7]: 87.6 µM (active)

COc1ccc(CNC(=O)c2cnc3cc(C)ccn3c2=O)cc1
EC50 [6]: > 300 µM (not active) | EC50 [7]: > 300 µM (not active)

COCCCNC(=O)c1cn(CC(C)C)c(=O)c2c1c1ccccc1n2C
IC50 [2]: > 100 µM (inactive) | EC50 [9]: > 195 µM (not active)

O=C(Nc1cc(=O)[nH]c2ncnn12)c1ccc(Cl)cc1Cl
EC50 [6]: 43.5 µM (inconclusive) | EC50 [7]: 20.5 µM (inconclusive)

COc1ccc(N2C(=O)/C(=C/c3ccc(N(C)C)o3)C(=O)NC2=S)cc1
EC50 [6]: > 300 µM (not active) | EC50 [7]: > 150 µM (inconclusive)

O=C(Nc1ccc(Cl)cc1)C(c1ccccc1)N(CCO)CCO (stereo unspecified)
IC50 [2]: > 100 µM (inactive)

Cc1cccn2c(Nc3ccccc3)c(-c3ccccn3)nc12
AC50 [5]: 5.84 µM (active)

CCCCN(C)C(=O)c1cccc(OC2CCN(CC(C)(C)C)CC2)c1
EC50 [6]: > 300 µM (not active) | EC50 [7]: > 300 µM (inconclusive)

CCOc1cc(C2C3=C(CCCC3=O)N(CC(=O)O)C3=C2C(=O)CCC3)ccc1OC
IC50 [3]: > 66 µM (inactive) | IC50 [4]: > 66 µM (inactive)

COc1ccc(N2C(=O)NC(=O)/C(=C/c3ccc4c(c3)Cc3ccccc3-4)C2=O)cc1
EC50 [6]: > 300 µM (not active) | EC50 [7]: > 300 µM (not active)

Fc1ccc(F)c(C2=NN=C(NCC3CCCO3)SC2)c1 (stereo unspecified)
IC50 [3]: > 66 µM (inactive) | IC50 [4]: > 66 µM (inactive)

Brc1ccc(-c2nc(-c3cccnc3)no2)o1
IC50 [2]: 42.7 µM (active)

Oc1[nH]c2ccc(Br)cc2c1N=NC(S)=NCC1CCCO1 (stereo unspecified)
EC50 [10]: > 60 µM (not active) | EC50 [11]: 2.17 µM (active) | IC50 [12]: > 20 µM (inactive)

Cc1cc(/C=C2\C(=O)NC(=O)N(C)C2=O)c(C)n1-c1ccc2c(c1)OCO2
EC50 [6]: > 300 µM (not active) | EC50 [7]: > 300 µM (not active)

CCOc1c(C=C(C#N)C#N)c2ccccc2n1CC
EC50 [6]: > 300 µM (not active) | EC50 [7]: > 300 µM (not active)

COc1cccc(N(C(=O)c2snc(C(N)=O)c2N)C(C(=O)NCC2CCCO2)c2c[nH]c3ccccc23)c1 (stereo unspecified)
IC50 [12]: > 20 µM (inactive)

COc1ccc(COCC(O)CN2CCC(CN3C(=O)c4cccc5cccc(c45)C3=O)CC2)cc1OC (stereo unspecified)
IC50 [12]: > 20 µM (inactive)

O=C(Nc1ccc(-c2csc(Nc3cccc(C(F)(F)F)c3)n2)cc1)c1cc([N+](=O)[O-])cc(C(F)(F)F)c1
AC50 [5]: 7.89 µM (active) | AC50 [13]: 1.4 µM (active)

N=C(N)NC(=N)Nc1ccc(SC(F)(F)F)cc1
AC50 [5]: 1.72 µM (active)

Oc1cc(-c2ccccc2Cl)c2c(n1)CCC2
IC50 [2]: > 100 µM (inactive)

O=C(Nc1cc[n+](-c2nc3ccccc3nc2[N-]S(=O)(=O)c2ccccc2)cc1)c1ccccc1Cl
EC50 [6]: > 300 µM (not active) | EC50 [7]: 32.7 µM (active)

Cc1cccc(C(=O)Nc2ccc(C(=O)/C=C/c3cccs3)cc2)c1
IC50 [2]: > 100 µM (inactive)

CC1Cc2ccccc2N1C(=O)c1cc2c(=O)n3ccccc3nc2n1C (stereo unspecified)
IC50 [14]: 59.3 µM (inactive) | AC50 [15]: 7.08 µM (inconclusive) | AC50 [16]: 14.1 µM (inconclusive)

Cn1c(=O)c2c(ncn2CC(=O)Nc2cccc(S(=O)(=O)Nc3ccccc3F)c2)n(C)c1=O
IC50 [3]: > 66 µM (inactive) | IC50 [4]: > 66 µM (inactive) | EC50 [9]: > 195 µM (not active)

O=C(Nc1ccccc1)NC1(C(=O)NCc2ccc3c(c2)OCO3)CCCCC1
EC50 [6]: > 300 µM (not active) | EC50 [7]: > 300 µM (not active)

N=C(S)C(c1ccccc1)c1ncc(C(F)(F)F)cc1Cl (stereo unspecified)
IC50 [3]: > 66 µM (inactive) | IC50 [4]: > 66 µM (inactive)

O=C1CN(C(=O)c2ccc(Br)o2)C(c2ccccc2)c2cc(Br)ccc2N1 (stereo unspecified)
IC50 [2]: 83.6 µM (inactive)

COc1cccc(/C=N/NC(=O)c2ccc(N3CCCC3=O)cc2)c1
AC50 [1]: < 0.26 µM (active)

COCCNC(=O)c1ccc(-c2ccc(OC)cc2C)c2ccoc12
IC50 [2]: > 100 µM (inactive)

C[C@@H]1CCCCO[C@H](CN(C)C(=O)Nc2ccc(C(F)(F)F)cc2)[C@@H](C)CN([C@@H](C)CO)C(=O)c2cc(NS(=O)(=O)c3cccs3)ccc2O1
AC50 [1]: 6.63 µM (active)

Cc1ccc(S(=O)(=O)Nc2ccc3c(c2)C(=O)N([C@@H](C)CO)C[C@H](C)[C@@H](CN(C)C(=O)Nc2ccc(C(F)(F)F)cc2)OCCCC[C@H](C)O3)cc1
AC50 [1]: 3.14 µM (active)

COc1ccccc1-c1ccc2c(c1)[C@H]1[C@H](CCN1S(=O)(=O)c1ccccc1F)[C@H](CO)N2
AC50 [1]: 8.48 µM (active)
